Experimental data as given in PubChem BioAssay (NCI).
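1) Cells in 96-well plates. 2) Compound, 48 h, 5 concentrations. 3) Linear interpolation between surrounding doses. 4) Unreached endpoint = highest concentration. The concentration for 50% growth inhibition is given as GI50. The concentration for full growth arrest is given as TGI.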

Tests used:
Assay in all cases: DTP human tumour cell line panel, 48 h
NCI-H226 lung = tested on: NCI-H226 lung
SN12C renal = tested on: SN12C renal
SK-MEL-28 melanoma = tested on: SK-MEL-28 melanoma
HOP-92 NSCLC = tested on: HOP-92 NSCLC
OVCAR-3 ovarian = tested on: OVCAR-3 ovarian
U251 CNS = tested on: U251 CNS
DU-145 prostate = tested on: DU-145 prostate
HT29 colon = tested on: HT29 colon
M14 melanoma = tested on: M14 melanoma
OVCAR-8 ovarian = tested on: OVCAR-8 ovarian
HCT-15 colon = tested on: HCT-15 colon
OVCAR-4 ovarian = tested on: OVCAR-4 ovarian
NCI-H23 lung = tested on: NCI-H23 lung
A549 NSCLC = tested on: A549 NSCLC
HOP-62 NSCLC = tested on: HOP-62 NSCLC
RPMI-8226 leukemia = tested on: RPMI-8226 leukemia
SNB-75 CNS = tested on: SNB-75 CNS
SW-620 colon = tested on: SW-620 colon
ACHN renal = tested on: ACHN renal
SR leukemia = tested on: SR leukemia
HCC-2998 colon = tested on: HCC-2998 colon
SF-295 CNS = tested on: SF-295 CNS
SF-268 CNS = tested on: SF-268 CNS
MDA-MB-435 = tested on: MDA-MB-435
EKVX NSCLC = tested on: EKVX NSCLC
T-47D breast = tested on: T-47D breast
SF-539 CNS = tested on: SF-539 CNS
PC-3 prostate = tested on: PC-3 prostate
OVCAR-5 ovarian = tested on: OVCAR-5 ovarian
KM12 colon = tested on: KM12 colon
UO-31 renal = tested on: UO-31 renal
NCI-H522 lung = tested on: NCI-H522 lung
LOX IMVI melanoma = tested on: LOX IMVI melanoma
NCI/ADR-RES ovarian = tested on: NCI/ADR-RES ovarian
RXF 393 renal = tested on: RXF 393 renal
MDA-MB-231 breast = tested on: MDA-MB-231 breast
MALME-3M melanoma = tested on: MALME-3M melanoma
CCRF-CEM leukemia = tested on: CCRF-CEM leukemia
TK-10 renal = tested on: TK-10 renal
UACC-257 melanoma = tested on: UACC-257 melanoma
MCF7 breast = tested on: MCF7 breast
SK-MEL-5 melanoma = tested on: SK-MEL-5 melanoma
NCI-H460 lung = tested on: NCI-H460 lung
CAKI-1 renal = tested on: CAKI-1 renal
MOLT-4 leukemia = tested on: MOLT-4 leukemia
K-562 leukemia = tested on: K-562 leukemia
IGROV1 ovarian = tested on: IGROV1 ovarian
A498 renal = tested on: A498 renal
SNB-19 CNS = tested on: SNB-19 CNS
UACC-62 melanoma = tested on: UACC-62 melanoma
HS 578T breast = tested on: HS 578T breast
COLO 205 colon = tested on: COLO 205 colon
SK-OV-3 ovarian = tested on: SK-OV-3 ovarian
786-0 renal = tested on: 786-0 renal
HCT-116 colon = tested on: HCT-116 colon
HL-60(TB) leukemia = tested on: HL-60(TB) leukemia
BT-549 breast = tested on: BT-549 breast

## O=C(N[C@@H](C[Se][Se]C[C@H](NC(=O)c1ccc(Br)cc1F)C(=O)O)C(=O)O)c1ccc(Br)cc1F
NCI-H226 lung
  GI50: > 100 µM
  TGI: > 100 µM
SN12C renal
  GI50: > 100 µM
  TGI: > 100 µM
SK-MEL-28 melanoma
  GI50: > 100 µM
  TGI: > 100 µM
HOP-92 NSCLC
  GI50: > 100 µM
  TGI: > 100 µM
OVCAR-3 ovarian
  GI50: > 100 µM
  TGI: > 100 µM
U251 CNS
  GI50: > 100 µM
  TGI: > 100 µM
DU-145 prostate
  GI50: > 100 µM
  TGI: > 100 µM
HT29 colon
  GI50: > 100 µM
  TGI: > 100 µM
M14 melanoma
  GI50: > 100 µM
  TGI: > 100 µM
OVCAR-8 ovarian
  GI50: > 100 µM
  TGI: > 100 µM
HCT-15 colon
  GI50: > 100 µM
  TGI: > 100 µM
OVCAR-4 ovarian
  GI50: > 100 µM
  TGI: > 100 µM
NCI-H23 lung
  GI50: > 100 µM
  TGI: > 100 µM
A549 NSCLC
  GI50: > 100 µM
  TGI: > 100 µM
HOP-62 NSCLC
  GI50: > 100 µM
  TGI: > 100 µM
RPMI-8226 leukemia
  GI50: > 100 µM
  TGI: > 100 µM
SNB-75 CNS
  GI50: > 100 µM
  TGI: > 100 µM
SW-620 colon
  GI50: > 100 µM
  TGI: > 100 µM
ACHN renal
  GI50: > 100 µM
  TGI: > 100 µM
SR leukemia
  GI50: 95.4 µM
  TGI: > 100 µM
HCC-2998 colon
  GI50: > 100 µM
  TGI: > 100 µM
SF-295 CNS
  GI50: > 100 µM
  TGI: > 100 µM
SF-268 CNS
  GI50: > 100 µM
  TGI: > 100 µM
MDA-MB-435
  GI50: > 100 µM
  TGI: > 100 µM
EKVX NSCLC
  GI50: > 100 µM
  TGI: > 100 µM
T-47D breast
  GI50: > 100 µM
  TGI: > 100 µM
SF-539 CNS
  GI50: > 100 µM
  TGI: > 100 µM
PC-3 prostate
  GI50: > 100 µM
  TGI: > 100 µM
OVCAR-5 ovarian
  GI50: > 100 µM
  TGI: > 100 µM
KM12 colon
  GI50: > 100 µM
  TGI: > 100 µM
UO-31 renal
  GI50: > 100 µM
  TGI: > 100 µM
NCI-H522 lung
  GI50: > 100 µM
  TGI: > 100 µM
LOX IMVI melanoma
  GI50: > 100 µM
  TGI: > 100 µM
NCI/ADR-RES ovarian
  GI50: > 100 µM
  TGI: > 100 µM
RXF 393 renal
  GI50: > 100 µM
  TGI: > 100 µM
MDA-MB-231 breast
  GI50: > 100 µM
  TGI: > 100 µM
MALME-3M melanoma
  GI50: > 100 µM
  TGI: > 100 µM
CCRF-CEM leukemia
  GI50: > 100 µM
  TGI: > 100 µM
TK-10 renal
  GI50: > 100 µM
  TGI: > 100 µM
UACC-257 melanoma
  GI50: > 100 µM
  TGI: > 100 µM
MCF7 breast
  GI50: 60.8 µM
  TGI: > 100 µM
SK-MEL-5 melanoma
  GI50: > 100 µM
  TGI: > 100 µM
NCI-H460 lung
  GI50: > 100 µM
  TGI: > 100 µM
CAKI-1 renal
  GI50: > 100 µM
  TGI: > 100 µM
MOLT-4 leukemia
  GI50: > 100 µM
  TGI: > 100 µM
K-562 leukemia
  GI50: > 100 µM
  TGI: > 100 µM
IGROV1 ovarian
  GI50: > 100 µM
  TGI: > 100 µM
A498 renal
  GI50: > 100 µM
  TGI: > 100 µM
SNB-19 CNS
  GI50: > 100 µM
  TGI: > 100 µM
UACC-62 melanoma
  GI50: > 100 µM
  TGI: > 100 µM
HS 578T breast
  GI50: > 100 µM
  TGI: > 100 µM
COLO 205 colon
  GI50: > 100 µM
  TGI: > 100 µM
SK-OV-3 ovarian
  GI50: > 100 µM
  TGI: > 100 µM
786-0 renal
  GI50: > 100 µM
  TGI: > 100 µM
HCT-116 colon
  GI50: > 100 µM
  TGI: > 100 µM
HL-60(TB) leukemia
  GI50: > 100 µM
  TGI: > 100 µM
BT-549 breast
  GI50: > 100 µM
  TGI: > 100 µM
